Laboratory results as given in patent US7638140B2, “Adhesive mixture for transdermal delivery of highly plasticizing drugs” (priority 1997, dated 2009).
Structures can show the parent of a compound that is named as a salt.

Tests used:
pH = assay type: physicochemical
[1] = free base form of the drug named as HCl salt; cited from earlier work

With `C#CCN(C)[C@H](C)Cc1ccccc1` [Selegiline free base, selegiline] the solubility in water (Solubility in water) was “only sparingly soluble in water”.

With `CCN(CC)CC` [Triethylamine] the “calculated pH” value (pH) was “approximately 13.7” and the “measured pH” value (pH) was “approximately 11.7”.

For `Clc1cccc(Cl)c1N=C1NCCN1` [clonidine-HCl], the “pKb of the free base form” value [1] is given as 7.

With `C#CCN(C)[C@H](C)Cc1ccccc1` [selegiline-HCl] the solubility in water (Solubility in water) was “readily soluble in water”.

For phenylpropranolol-HCl, the “pH of the free base form” value (pH; free base form) was “approximately 13”.
